Measurements taken from US20020137929A1, “1 - (3-heterocyclylphenyl) isothiourea, -isourea, -guanidine and -amidine herbicidal agents” (Intellectual Property Department, BASF Aktiengesellschaft, priority 1998, published 2002).

Tests used:
ABUTH (Velvetleaf) = assay: Postemergence herbicidal evaluation; assay type: in vivo, Abutilon theophrasti; conditions: for ABUTH herbicidal rating: postemergence
In short: (§1)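 Two-week-old seedlings sprayed with compound in 50/50 acetone/water plus 0.5% TWEEN 20, at about 0.0156 to 0.500 kg/ha, nozzle at 40 psi. Kept in greenhouse; rated visually 4-5 weeks after treatment on a 0-9 scale versus control, repeat tests averaged.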

GALAP (Galium) = assay: Postemergence herbicidal evaluation; assay type: in vivo, Galium aparine; conditions: for GALAP herbicidal rating: postemergence
In short: as §1

ECHCG (Barnyardgrass) = assay: Postemergence herbicidal evaluation; assay type: in vivo, Echinochloa crus-galli; conditions: for ECHCG herbicidal rating: postemergence
In short: as §1

SETVI (Foxtail, Green) = assay: Postemergence herbicidal evaluation; assay type: in vivo, Setaria viridis; conditions: for SETVI herbicidal rating: postemergence
In short: as §1

ORYSAT (Rice, Tebonnet) = assay: Postemergence herbicidal evaluation; assay type: in vivo, Oryza sativa, (L.) Tebonnet; conditions: for ORYSAT herbicidal rating: postemergence
In short: as §1

[1] = test system: ECHORC (Watergrass (Calif.)); assay: Preemergence weed control under flooded paddy conditions; assay type: in vivo, Echinochloa oryzoides; conditions: rated 3-4 weeks after treatment
In short: (§2)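 Ratings on a 0-9 visual scale cover stand, vigor, malformation, size, chlorosis and overall appearance relative to a control, taken three to four weeks post-treatment. Application was into flood water over freshly sown silt loam at roughly 0.0313 to 0.500 kg/ha.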

CYPIR (Rice Flatsedge) [2] = assay: as above; assay type: in vivo, Cyperus iria; conditions: rated 3-4 weeks after treatment
In short: as §2

MOOVA (Monochoria) = assay: as above; assay type: in vivo, Monochoria vaginalis; conditions: rated 3-4 weeks after treatment
In short: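 Herbicidal effect is scored visually on a 0-9 scale against an untreated control, three to four weeks after compounds are pipetted into the flood water (1.5 to 3 cm deep) over seeds planted in silt loam at 0.5 cm depth. Rates: about 0.0313 to 0.500 kg/ha.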

CYPIR (Rice Flatsedge) [3] = assay: Postemergence weed control under flooded paddy conditions; assay type: in vivo, Cyperus iria; conditions: postemergence weeds, 3-4 weeks after treatment
In short: (§3)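 Injury ratings (0–9 scale covering stand, vigor, malformation, size, chlorosis and overall appearance versus control) were made three to four weeks after treatment. Test material, about 0.0313 to 0.500 kg/ha a.i. in 50/50 v/v aqueous/acetone, was added to flood water 1.5 to 3 cm deep over 3 to 5 cm weeds and 1.5 to 2.5 leaf rice.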

CYPSE (Flatsedge) = assay: as above; assay type: in vivo, Cyperus serotinus; conditions: postemergence weeds, 3-4 weeks after treatment
In short: as §3

[4] = test system: SAGPY (Arrowhead (Pygmaea)); assay: as above; assay type: in vivo, Sagittaria pygmaea; conditions: postemergence weeds, 3-4 weeks after treatment
In short: as §3

[5] = test system: TRZAWR (Wheat, Winter, cv Riband); assay: Preemergence herbicidal evaluation; assay type: in vivo, Triticum aestivum; conditions: rated 4-5 weeks after treatment
In short: (§4)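 Herbicidal effect scored visually, 0-9, at 4 to 5 weeks against a control; compound applied preemergence by aqueous acetone spray to seeded soil at about 0.0156 to 0.500 kg/ha.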

ZEAMX (Corn, Field) = assay: Preemergence herbicidal evaluation; assay type: in vivo, Zea mays; conditions: rated 4-5 weeks after treatment
In short: as §4

2-{{2-Chloro-5-[3,6-dihydro-3-methyl-2,6-dioxo-4-(trifluoromethyl)-1(2H)-pyrimidinyl]-4-fluoro-phenyl}imino}-4-oxo-3,5-thiazolidenediacetic acid, 3-ethyl (2-propynyl) ester, (2:1) mixture with di-2-propynyl ester [Compound 58]
Postemergence herbicidal rating ABUTH (ABUTH (Velvetleaf); Rate 0.0158 kg/ha): 9.0
Postemergence herbicidal rating ABUTH (ABUTH (Velvetleaf); Rate 0.0315 kg/ha): 9.0
Postemergence herbicidal rating ABUTH (ABUTH (Velvetleaf); Rate 0.0630 kg/ha): 9.0
Postemergence herbicidal rating GALAP (GALAP (Galium); Rate 0.0158 kg/ha): 1.0
Postemergence herbicidal rating GALAP (GALAP (Galium); Rate 0.0315 kg/ha): 3.0
Postemergence herbicidal rating GALAP (GALAP (Galium); Rate 0.0630 kg/ha): 9.0
Postemergence herbicidal rating ECHCG (ECHCG (Barnyardgrass); Rate 0.0158 kg/ha): 7.0
Postemergence herbicidal rating ECHCG (ECHCG (Barnyardgrass); Rate 0.0315 kg/ha): 7.0
Postemergence herbicidal rating ECHCG (ECHCG (Barnyardgrass); Rate 0.0630 kg/ha): 9.0
Postemergence herbicidal rating SETVI (SETVI (Foxtail, Green); Rate 0.0158 kg/ha): 9.0
Postemergence herbicidal rating SETVI (SETVI (Foxtail, Green); Rate 0.0315 kg/ha): 9.0
Postemergence herbicidal rating SETVI (SETVI (Foxtail, Green); Rate 0.0630 kg/ha): 9.0
Postemergence herbicidal rating ORYSAT (ORYSAT (Rice, Tebonnet); Rate 0.0158 kg/ha): 5.5
Postemergence herbicidal rating ORYSAT (ORYSAT (Rice, Tebonnet); Rate 0.0315 kg/ha): 5.5
Postemergence herbicidal rating ORYSAT (ORYSAT (Rice, Tebonnet); Rate 0.0630 kg/ha): 6.0
ECHORC herbicidal effect rating ([1]; 0.0313 kg/ha): 7.0
Herbicidal rating ECHORC ([1]; 0.0625 kg/ha): 7.0
Herbicidal rating ECHORC ([1]; 0.1250 kg/ha): 7.0
Herbicidal rating ECHORC ([1]; 0.2500 kg/ha): 9.0
CYPIR herbicidal effect rating (CYPIR (Rice Flatsedge) [2]; 0.0313 kg/ha): 0.0
Herbicidal rating CYPIR (CYPIR (Rice Flatsedge) [2]; 0.0625 kg/ha): 0.0
Herbicidal rating CYPIR (CYPIR (Rice Flatsedge) [2]; 0.1250 kg/ha): 2.0
Herbicidal rating CYPIR (CYPIR (Rice Flatsedge) [2]; 0.2500 kg/ha): 3.0
MOOVA herbicidal effect rating (MOOVA (Monochoria); 0.0313 kg/ha): 0.0
Herbicidal rating MOOVA (MOOVA (Monochoria); 0.0625 kg/ha): 0.0
Herbicidal rating MOOVA (MOOVA (Monochoria); 0.1250 kg/ha): 3.0
Herbicidal rating MOOVA (MOOVA (Monochoria); 0.2500 kg/ha): 9.0
Herbicidal rating CYPIR (CYPIR (Rice Flatsedge) [3]; rate 0.0313 kg/ha): 0.0
Herbicidal rating CYPIR (CYPIR (Rice Flatsedge) [3]; rate 0.0625 kg/ha): 0.0
Herbicidal rating CYPIR (CYPIR (Rice Flatsedge) [3]; rate 0.1250 kg/ha): 2.0
Herbicidal rating CYPIR (CYPIR (Rice Flatsedge) [3]; rate 0.2500 kg/ha): 3.0
Herbicidal rating CYPSE (CYPSE (Flatsedge); rate 0.0313 kg/ha): 5.0
Herbicidal rating CYPSE (CYPSE (Flatsedge); rate 0.0625 kg/ha): 5.0
Herbicidal rating CYPSE (CYPSE (Flatsedge); rate 0.1250 kg/ha): 5.0
Herbicidal rating CYPSE (CYPSE (Flatsedge); rate 0.2500 kg/ha): 5.0
Herbicidal rating SAGPY ([4]; rate 0.0313 kg/ha): 0.0
Herbicidal rating SAGPY ([4]; rate 0.0625 kg/ha): 0.0
Herbicidal rating SAGPY ([4]; rate 0.1250 kg/ha): 0.0
Herbicidal rating SAGPY ([4]; rate 0.2500 kg/ha): 4.0

C=CCN1C(=O)CSC1=Nc1cc(N2C(=O)C3=C(CCCC3)C2=O)c(F)cc1Cl [Compound 2, N-{5-[(3-allyl-4-oxo-2-thiazolidinylidene)amino]-4-chloro-2-fluorophenyl}-1-cyclohexene-1,2-dicarboximide]
ABUTH herbicidal rating (ABUTH (Velvetleaf); rate 0.0157 kg/ha): 0.0
ABUTH herbicidal rating (ABUTH (Velvetleaf); rate 0.0313 kg/ha): 4.0
ABUTH herbicidal rating (ABUTH (Velvetleaf); rate 0.0625 kg/ha): 9.0
ABUTH herbicidal rating (ABUTH (Velvetleaf); rate 0.1250 kg/ha): 9.0
ABUTH herbicidal rating (ABUTH (Velvetleaf); rate 0.2500 kg/ha): 9.0
ABUTH herbicidal rating (ABUTH (Velvetleaf); rate 0.5000 kg/ha): 9.0
GALAP herbicidal rating (GALAP (Galium); rate 0.0157 kg/ha): 4.0
GALAP herbicidal rating (GALAP (Galium); rate 0.0313 kg/ha): 8.0
GALAP herbicidal rating (GALAP (Galium); rate 0.0625 kg/ha): 4.0
GALAP herbicidal rating (GALAP (Galium); rate 0.1250 kg/ha): 4.0
GALAP herbicidal rating (GALAP (Galium); rate 0.2500 kg/ha): 4.0
GALAP herbicidal rating (GALAP (Galium); rate 0.5000 kg/ha): 4.0
ECHCG herbicidal rating (ECHCG (Barnyardgrass); rate 0.0157 kg/ha): 0.0
ECHCG herbicidal rating (ECHCG (Barnyardgrass); rate 0.0313 kg/ha): 0.0
ECHCG herbicidal rating (ECHCG (Barnyardgrass); rate 0.0625 kg/ha): 0.0
ECHCG herbicidal rating (ECHCG (Barnyardgrass); rate 0.1250 kg/ha): 0.0
ECHCG herbicidal rating (ECHCG (Barnyardgrass); rate 0.2500 kg/ha): 0.0
ECHCG herbicidal rating (ECHCG (Barnyardgrass); rate 0.5000 kg/ha): 0.0
SETVI herbicidal rating (SETVI (Foxtail, Green); rate 0.0157 kg/ha): 0.0
SETVI herbicidal rating (SETVI (Foxtail, Green); rate 0.0313 kg/ha): 0.0
SETVI herbicidal rating (SETVI (Foxtail, Green); rate 0.1250 kg/ha): 0.0
SETVI herbicidal rating (SETVI (Foxtail, Green); rate 0.2500 kg/ha): 0.0
SETVI herbicidal rating (SETVI (Foxtail, Green); rate 0.5000 kg/ha): 0.0
ORYSAT herbicidal rating (ORYSAT (Rice, Tebonnet); rate 0.0157 kg/ha): 3.0
ORYSAT herbicidal rating (ORYSAT (Rice, Tebonnet); rate 0.0313 kg/ha): 3.0
ORYSAT herbicidal rating (ORYSAT (Rice, Tebonnet); rate 0.0625 kg/ha): 3.0
ORYSAT herbicidal rating (ORYSAT (Rice, Tebonnet); rate 0.1250 kg/ha): 3.5
ORYSAT herbicidal rating (ORYSAT (Rice, Tebonnet); rate 0.2500 kg/ha): 3.5
ORYSAT herbicidal rating (ORYSAT (Rice, Tebonnet); rate 0.5000 kg/ha): 3.0
TRZAWR preemergence herbicidal rating ([5]; rate 0.0313 kg/ha): 0.0
TRZAWR preemergence herbicidal rating ([5]; rate 0.0625 kg/ha): 0.0
TRZAWR preemergence herbicidal rating ([5]; rate 0.1250 kg/ha): 0.0
TRZAWR preemergence herbicidal rating ([5]; rate 0.2500 kg/ha): 0.0
TRZAWR preemergence herbicidal rating ([5]; rate 0.5000 kg/ha): 0.0
ZEAMX preemergence herbicidal rating (ZEAMX (Corn, Field); rate 0.0313 kg/ha): 0.0
ZEAMX preemergence herbicidal rating (ZEAMX (Corn, Field); rate 0.0625 kg/ha): 0.0
ZEAMX preemergence herbicidal rating (ZEAMX (Corn, Field); rate 0.1250 kg/ha): 0.0
ZEAMX preemergence herbicidal rating (ZEAMX (Corn, Field); rate 0.2500 kg/ha): 0.0
ZEAMX preemergence herbicidal rating (ZEAMX (Corn, Field); rate 0.5000 kg/ha): 0.0
Herbicidal rating ECHORC ([1]; 0.0313 kg/ha): 2.0
Herbicidal rating ECHORC ([1]; 0.0625 kg/ha): 2.0
Herbicidal rating ECHORC ([1]; 0.1250 kg/ha): 7.0
Herbicidal rating ECHORC ([1]; 0.2500 kg/ha): 8.0
Herbicidal rating ECHORC ([1]; 0.5000 kg/ha): 9.0
Herbicidal rating CYPIR (CYPIR (Rice Flatsedge) [2]; 0.0313 kg/ha): 0.0
Herbicidal rating CYPIR (CYPIR (Rice Flatsedge) [2]; 0.0625 kg/ha): 0.0
Herbicidal rating CYPIR (CYPIR (Rice Flatsedge) [2]; 0.1250 kg/ha): 0.0
Herbicidal rating CYPIR (CYPIR (Rice Flatsedge) [2]; 0.2500 kg/ha): 0.0
Herbicidal rating CYPIR (CYPIR (Rice Flatsedge) [2]; 0.5000 kg/ha): 1.0
Herbicidal rating MOOVA (MOOVA (Monochoria); 0.0313 kg/ha): 4.0
Herbicidal rating MOOVA (MOOVA (Monochoria); 0.0625 kg/ha): 9.0
Herbicidal rating MOOVA (MOOVA (Monochoria); 0.1250 kg/ha): 9.0
Herbicidal rating MOOVA (MOOVA (Monochoria); 0.2500 kg/ha): 9.0
Herbicidal rating MOOVA (MOOVA (Monochoria); 0.5000 kg/ha): 9.0
Herbicidal rating CYPIR (CYPIR (Rice Flatsedge) [3]; rate 0.0313 kg/ha): 0.0
Herbicidal rating CYPIR (CYPIR (Rice Flatsedge) [3]; rate 0.0625 kg/ha): 0.0
Herbicidal rating CYPIR (CYPIR (Rice Flatsedge) [3]; rate 0.1250 kg/ha): 0.0
Herbicidal rating CYPIR (CYPIR (Rice Flatsedge) [3]; rate 0.2500 kg/ha): 1.0
Herbicidal rating CYPIR (CYPIR (Rice Flatsedge) [3]; rate 0.5000 kg/ha): 4.0
Herbicidal rating CYPSE (CYPSE (Flatsedge); rate 0.0313 kg/ha): 0.0
Herbicidal rating CYPSE (CYPSE (Flatsedge); rate 0.0625 kg/ha): 0.0
Herbicidal rating CYPSE (CYPSE (Flatsedge); rate 0.1250 kg/ha): 0.0
Herbicidal rating CYPSE (CYPSE (Flatsedge); rate 0.2500 kg/ha): 0.0
Herbicidal rating CYPSE (CYPSE (Flatsedge); rate 0.5000 kg/ha): 0.0
Herbicidal rating SAGPY ([4]; rate 0.0313 kg/ha): 0.0
Herbicidal rating SAGPY ([4]; rate 0.0625 kg/ha): 0.0
Herbicidal rating SAGPY ([4]; rate 0.1250 kg/ha): 0.0
Herbicidal rating SAGPY ([4]; rate 0.2500 kg/ha): 0.0
Herbicidal rating SAGPY ([4]; rate 0.5000 kg/ha): 1.0
